ChEMBL document CHEMBL1125704, “Novel time-dependent inhibitors of human placental aromatase” (J Med Chem, 1991)

Molecular target: T1, Aromatase (Homo sapiens, UniProt P11511)
T1 sequence (P11511 whole entry): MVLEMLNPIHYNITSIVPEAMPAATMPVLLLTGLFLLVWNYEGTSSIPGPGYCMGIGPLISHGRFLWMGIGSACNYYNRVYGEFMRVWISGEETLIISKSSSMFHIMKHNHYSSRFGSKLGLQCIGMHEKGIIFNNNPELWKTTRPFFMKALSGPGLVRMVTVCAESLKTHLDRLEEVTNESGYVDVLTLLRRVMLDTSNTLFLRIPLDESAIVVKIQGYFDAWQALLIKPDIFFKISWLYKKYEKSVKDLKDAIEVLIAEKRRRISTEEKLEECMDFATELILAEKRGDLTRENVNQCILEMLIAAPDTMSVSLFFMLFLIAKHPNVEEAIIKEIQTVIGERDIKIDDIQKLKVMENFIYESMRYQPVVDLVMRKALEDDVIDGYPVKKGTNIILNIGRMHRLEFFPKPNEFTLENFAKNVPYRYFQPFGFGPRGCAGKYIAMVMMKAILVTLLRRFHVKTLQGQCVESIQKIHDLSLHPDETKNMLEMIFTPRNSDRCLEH
Assay: Inhibition of binding to human Placental Cytochrome P450 19A1

SMILES | Ki [nM]
C[C@]12CCC3C(CCC4=CC(=O)[C@H]5CC[C@]43C5)C1CCC2=O (some centres undefined) | 70
C[C@]12CCC3C(CCC4=CC(=O)[C@H]5C[C@H](O)[C@]43C5)C1CCC2=O (single isomer, unassigned) | 926
C[C@]12CCC3C(CCC4=CC(=O)[C@H]5C[C@@H](O)[C@]43C5)C1CCC2=O (single isomer, unassigned) | 870
C[C@]12CCC3C(CCC4=CC(=O)CC[C@@]43C(O)CBr)C1CCC2=O (single isomer, unassigned; 11a) | 27
